Among the data in PMC6173770, “Direct electrical quantification of glucose and asparagine from bodily fluids using nanopores” (Nature Communications, 2018) are Kd values, retold here.

In the experiment the target is T1, SBD1 (Lactococcus lactis, UniProt Q9CES5).
T1 construct: gene glnP; His tag cleaved off by TEV; expressed in E. coli MC1061; SEC purified
T1 sequence (Q9CES5 27-251 limits assumed): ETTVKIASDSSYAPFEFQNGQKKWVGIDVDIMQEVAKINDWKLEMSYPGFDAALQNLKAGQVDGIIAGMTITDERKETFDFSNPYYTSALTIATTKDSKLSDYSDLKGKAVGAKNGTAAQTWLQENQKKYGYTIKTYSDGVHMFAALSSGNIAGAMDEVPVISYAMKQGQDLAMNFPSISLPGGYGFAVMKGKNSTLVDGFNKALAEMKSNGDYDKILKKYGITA
Nature of the experiment: single-molecule nanopore current (SBD1 trapped in ClyA-AS), closed fraction vs ligand, Hill fit n = […]. The format is binding. To be noted: 150 mM NaCl, 15 mM Tris-HCl, pH 7.5, 25 °C, -90 mV, asparagine in trans; read-out: Kd^app.

Consider `NC(=O)C[C@H](N)C(=O)O` [asparagine], for which the Kd stood at 500 ± 40 nM.
